Reference: paper PMC9404985, “Development of Dicationic Bisguanidine-Arylfuran Derivatives as Potent Agents against Gram-Negative Bacteria” (Antibiotics, 2022)
Like-named read-outs stand apart in the source and are kept apart here.

Experiments:
[1] = system: E. coli MG1655 (CGSC #6300); experiment: Antibacterial resazurin assay, laboratory strain; details: for EC50 / EC90: Escherichia coli, MG1655, 18 h; for EC50: read-out: Eco EC50; for EC90: read-out: Eco EC90; for Selectivity index E. coli: mean of MCF-7 and HepG2 EC50 over bacterial EC50, laboratory strain
[2] = system: A. baumannii (CCUG #57250); experiment: Antibacterial activity against isolates (Omnilog, Biolog redox dye); assay type: cell-based, Acinetobacter baumannii; details: for EC90 / EC50: ca-MH broth, 24 h, 37 °C; for EC50: CCUG57250; for Selectivity index A. baumannii (CCUG #57250): SI = ((EC50 MCF-7 + EC50 HepG2)/2)/EC50 bacterial strain
Procedure: (§1) The antibacterial activities of eight compounds (1, 3, 4, 6, 8, 10, 16, and 17) were tested against 10 different isolates of Gram-negative bacteria from human and other sources, two E. coli (CCUG #67180 and CCUG #17620/ATCC #25922, control strain), two K. pneumoniae (CCUG #58547 and CCUG #225T), two P. aeruginosa (CCUG #17619 and CCUG #59347), two A. baumannii (CCUG #57035 and CCUG #57250), E. cloacae (CCUG #6323T), and E. hormaechei (CCUG #58962) in a 96-well plate format. The compounds to test were 3-fold diluted in six steps in cation-adjusted Mueller-Hinton (ca-MH) broth to final concentrations spanning from 30 to 0.12 µM, i.e., a 1667–416,667 times dilution from the 50 mM stocks. Bacterial mass from the ten isolates grown overnight on horse blood or Mueller–Hinton agar plates was suspended in ca-MH and adjusted to a final inoculum cell density of ~5 × 10^5 CFU/mL. For all assays, Biolog redox dye A diluted 100× from the stock solution was used for measurements of all ten isolates (up to a total volume of 120 µL per well). All plates included one well per isolate with only inoculum and dye but no test compound (i.e., positive control) and one well per isolate with inoculum, dye and DMSO diluted 1667×, corresponding to the DMSO concentration in the wells with the highest concentration of test compound. All measurements were performed using the Omnilog microplate reader (Biolog, Hayward, CA, USA) where the 96-well plates were read at 15 min intervals for a total of 24 h at 37 °C.

[3] = system: K. pneumoniae (CCUG #225T); experiment: as above; assay type: cell-based, Klebsiella pneumoniae; details: for EC50 / EC90: Klebsiella pneumoniae, ca-MH broth, 24 h, 37 °C; for Selectivity index K. pneumoniae (CCUG #225T): SI = ((EC50 MCF-7 + EC50 HepG2)/2)/EC50 bacterial strain
Procedure: as §1

[4] = system: K. pneumoniae (CCUG #58547); experiment: as above; assay type: cell-based, Klebsiella pneumoniae; details: for EC50 / EC90: Klebsiella pneumoniae, CCUG58547, ca-MH broth, 24 h, 37 °C; for Selectivity index K. pneumoniae (CCUG #58547): SI = ((EC50 MCF-7 + EC50 HepG2)/2)/EC50 bacterial strain
Procedure: as §1, with “The compounds to test were 3-fold diluted in six steps in cation-adjusted Mueller-Hinton (ca-MH) broth to final concentrations spanning from 30 to 0.12 µM, i.e., a 1667–416,667 times dilution from the 50 mM stocks.” left out

[5] = Cytotoxicity assay (PrestoBlue) HepG2; assay type: cell-based; details: human, HepG2 cells (hepatoma cell line), 24 h incubation
Procedure: The cytotoxicity levels of all compounds were evaluated against human Michigan Cancer Foundation-7 (MCF-7) and Hepatoma G2 cell line (HepG2) cell lines. MCF-7 is an extensively characterized breast cancer cell line isolated in 1970 [41], while HepG2 cells were derived from a hepatoma in 1975 [42]. Both cell lines grow robustly during in vitro culture and have been widely used for cytotoxicity testing. Cells of hepatic origin, such as HepG2, are of particular relevance for toxicity studies as many drugs accumulate in the liver during metabolic conversion. Cells were grown in Dulbecco’s Modified Eagle Medium supplemented with 10% fetal calf serum and kept in exponential growth, as previously reported. Before the assay, cells were reseeded into 96-well microtiter plates at a density allowing continued exponential growth and let to settle for 24 h. The compounds were added from a stock solution in DMSO, for a final concentration of 0.3% v/v of the solvent in the culture medium. After 24 h of incubation in presence of the compound, cell viability was assayed using PrestoBlue Cell Viability Reagent (resazurin-based solution, ThermoFisher, Waltham, MA, USA) according to the manufacturer’s instructions. […] Each assay contained a DMSO control at the equivalent starting concentration, positive control (uninhibited cell growth) and negative control (cell medium only). Survival was expressed as percentage of the solvent-only control. […] The Selectivity Index (SI) for each compound and bacterial strain was calculated as the ratio between the mean of the EC50 values for the two human cell lines and the EC50 for the bacterial strain in question ((EC50 MCF-7 + EC50 HepG2)/2)/EC50 bacterial strain).

[6] = system: E. hormaechei (CCUG #58962); experiment: Antibacterial activity against isolates (Omnilog, Biolog redox dye); assay type: cell-based, Enterobacter hormaechei; details: for EC50 / EC90: Enterobacter hormaechei, CCUG58962, ca-MH broth, 24 h, 37 °C; for Selectivity index E. hormaechei (CCUG #58962): SI = ((EC50 MCF-7 + EC50 HepG2)/2)/EC50 bacterial strain
Procedure: as §1, with “The compounds to test were 3-fold diluted in six steps in cation-adjusted Mueller-Hinton (ca-MH) broth to final concentrations spanning from 30 to 0.12 µM, i.e., a 1667–416,667 times dilution from the 50 mM stocks.” left out

[7] = system: P. putida (NBRC/ATCC #100650); experiment: Antibacterial resazurin assay, laboratory strain; details: for EC90: read-out: Ppu EC90; for Selectivity index P. putida: mean of MCF-7 and HepG2 EC50 over bacterial EC50, laboratory strain
[8] = system: P. caledonica (NBRC/ATCC #102488); experiment: Antibacterial resazurin assay, laboratory strain; details: for EC50 / EC90: Paraburkholderia caledonica, ATCC102488, 18 h; for EC50: read-out: Pcal EC50; for EC90: read-out: Pcal EC90; for Selectivity index P. caledonica: mean of MCF-7 and HepG2 EC50 over bacterial EC50, laboratory strain
[9] = Acinetobacter baumannii, CCUG57250, 24 h
[10] = Pseudomonas putida, ATCC100650, 18 h, read-out: Ppu EC50, laboratory strain, 18 h, 37 °C, AlamarBlue
[11] = Pseudomonas putida, ATCC100650, 18 h
[12] = read-out: Ppu EC50, laboratory strain, 18 h, 37 °C, AlamarBlue

Row | Compound | EC50 [1] | EC90 [1] | Selectivity index E. coli [1] | EC90 [2, 9] | EC50 ([2]; Acinetobacter baumannii) | EC50 [3] | EC90 [3] | Selectivity index K. pneumoniae (CCUG #225T) [3] | EC50 [4] | EC90 [4] | Selectivity index K. pneumoniae (CCUG #58547) [4] | EC50 at 24 h [5] | EC50 [6] | EC90 [6] | EC50 [7, 10] | EC90 [7, 11] | Selectivity index P. putida [7] | EC50 [8] | EC90 [8] | Selectivity index P. caledonica [8] | also measured
1 | N=C(N)Nc1ccc(-c2ccc(-c3ccc(NC(=N)N)cc3)o2)cc1 [Compound 3] | 80.4 µM | 174 µM | 1.5 | 2.4 µM | 1.7 µM | 2.8 µM | 3.1 µM | 45.2 | 5.6 µM | 8.3 µM | 22.1 | 185 µM | 7.6 µM | 9.1 µM | 8.3 µM | 14.3 µM | 15.0 | 4.5 µM | 18.9 µM | 27.4 | EC90 [2]: 2.3 µM; Selectivity index E. hormaechei (CCUG #58962) [6]: 16.4
2 | Cc1cc(NC(=N)N)ccc1-c1ccc(-c2ccc(NC(=N)N)cc2C)o1 [Compound 4, 2,5-Bis(4-guanidino-2-methylphenyl)furan] | 48.9 µM | 80.8 µM | 1.5 | 22.5 µM | 15.8 µM | 15.3 µM | 22.7 µM | 4.9 | 17.1 µM | 22.4 µM | 4.4 | 51.3 µM | 21.9 µM | 25.9 µM | ~14.4 µM | 59.6 µM | 5.2 | 8.2 µM | 51.9 µM | 9.2 | Selectivity index A. baumannii (CCUG #57250) [2]: 4.8; Selectivity index E. hormaechei (CCUG #58962) [6]: 3.4; EC50 [7, 12]: 14.5 µM
3 | COc1cc(NC(=N)N)ccc1-c1ccc(-c2ccc(NC(=N)N)cc2OC)o1 [Compound 6, 2,5-Bis(4-guanidino-2-methoxyphenyl)furan] | 35.7 µM | 76.3 µM | 4.0 | 8.8 µM | 7.6 µM | 10.3 µM | 12.7 µM | 14.0 | 13 µM | 13.7 µM | 11.1 | 213 µM | 15.9 µM | 22.9 µM | ~14.4 µM | 19.7 µM | 10.1 | 25.6 µM | 35.6 µM | 5.6 | Selectivity index A. baumannii (CCUG #57250) [2]: 19.0; Selectivity index E. hormaechei (CCUG #58962) [6]: 9.0; EC50 [7, 12]: 14.3 µM
4 | COC(=O)c1cc(NC(=N)N)ccc1-c1ccc(-c2ccc(NC(=N)N)cc2C(=O)OC)o1 [Compound 8, 2,5-Bis(4-guanidino-2-(methylcarboxy)phenyl)furan] | 95.4 µM | 129 µM | 2.5 | 5.1 µM | 4.4 µM | 5.6 µM | 7.9 µM | 43.3 | 10.3 µM | 13.3 µM | 23.6 | 405 µM | 8.3 µM | 8.7 µM | 68.4 µM | 92.1 µM | 3.6 | > 300 µM | > 300 µM | – | Selectivity index A. baumannii (CCUG #57250) [2]: 55.3; Selectivity index E. hormaechei (CCUG #58962) [6]: 29.4
5 | N=C(N)NCc1ccc(-c2ccc(-c3ccc(CNC(=N)N)cc3)o2)cc1 [Compound 10, 2,5-Bis(4-guanidinomethylphenyl)furan] | 73.2 µM | 108 µM | 1.3 | > 200 µM | > 200 µM | > 200 µM | > 200 µM | – | > 200 µM | > 200 µM | – | 137 µM | > 200 µM | > 200 µM | 25.6 µM | 36.7 µM | 3.6 | 2.9 µM | 5 µM | 31.8 | –
6 | N=C(N)Nc1ccc(-c2ccc(C(=O)N3CCc4cc(NC(=N)N)ccc43)o2)c(Cl)c1 [Compound 16, (5-(2-chloro-4-guanidinophenyl)furan-2-yl)(5-guanidinoindolin-1-yl)methanone] | 13.1 µM | 19 µM | 16.0 | 12.5 µM | 12.5 µM | 9.8 µM | 12.2 µM | 21.4 | 12.9 µM | 15.3 µM | 16.2 | 241 µM | 12.7 µM | 14.7 µM | 94.2 µM | 147 µM | 2.2 | 51.4 µM | 176 µM | 4.1 | Selectivity index A. baumannii (CCUG #57250) [2]: 16.7; Selectivity index E. hormaechei (CCUG #58962) [6]: 16.4
7 | N=C(N)Nc1ccc(-c2ccc(C(=O)N3CCc4cc(NC(=N)N)ccc43)o2)cc1 [Compound 17, (5-(4-guanidinophenyl)furan-2-yl)(5-guanidinoindolin-1-yl)methanone] | 1.7 µM | 4.3 µM | 114.3 | 90.3 µM | 61.8 µM | > 200 µM | > 200 µM | – | > 200 µM | > 200 µM | – | 239 µM | > 200 µM | > 200 µM | 73.9 µM | 98 µM | 2.6 | 72.5 µM | > 300 µM | 2.7 | Selectivity index A. baumannii (CCUG #57250) [2]: 3.1
